One assay concerns the target human GCGR (Homo sapiens (Human), UniProt P47871). The assay is described as follows: Cellular functional assay, cAMP readout (glucagon-stimulated cAMP in HEK293 cells expressing human GCGR). To be noted: hGluc-1 HEK cells, LANCE TR-FRET, IC50 converted to Ki, average if tested more than once. Format: cell-based. In a few lines: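 HEK293 cells stably transfected with full-length human GCGR were exposed to compound for 30 min before a 5-min challenge with […] (final) glucagon. Readout was TR-FRET (LANCE) cAMP versus standard curve; IC50s fitted by non-linear regression and converted to Ki values.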
Background: Time-resolved FRET reads energy transfer from a long-lived donor to a nearby acceptor.

For assay [1], the target named is human glucagon receptor (GCGR) (Homo sapiens (Human), UniProt P47871). Kind of assay: Inhibition of 125I-glucagon binding to membranes from HEK293 cells expressing the human glucagon receptor. In a few lines:
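Filtration binding assay on membranes from HEK293 cells stably expressing full-length human GCGR, 6 μg protein/well, with 0.3 nM ¹²⁵I-glucagon plus compound, 2 h at room temperature. Buffer: 50 mM HEPES pH 7.4, 5 mM MgCl2, 1 mM CaCl2, 0.2% BSA. IC50 by non-linear regression, converted to Ki.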

The mark [2] stands for this setting: membranes of hGluc-1 HEK cells, 125I-glucagon 0.3 nM, 2 hours room temperature, IC50 converted to Ki, average if tested more than once.

Drawing on patent US8748624B2, “Picolinamido-propanoic acid derivatives useful as glucagon receptor antagonists” (Janssen Pharmaceutica NV, priority 2011, dated 2014), this text covers Ki for 26 compounds.

One may read the pKi as the negative decadic logarithm of the Ki, by convention in mol/L.

Structures are written as SMILES. pKi: −log10 of the molar value. Like-named read-outs stand apart in the source and are kept apart here.

Sequence of human glucagon receptor (GCGR) (P47871 26-477): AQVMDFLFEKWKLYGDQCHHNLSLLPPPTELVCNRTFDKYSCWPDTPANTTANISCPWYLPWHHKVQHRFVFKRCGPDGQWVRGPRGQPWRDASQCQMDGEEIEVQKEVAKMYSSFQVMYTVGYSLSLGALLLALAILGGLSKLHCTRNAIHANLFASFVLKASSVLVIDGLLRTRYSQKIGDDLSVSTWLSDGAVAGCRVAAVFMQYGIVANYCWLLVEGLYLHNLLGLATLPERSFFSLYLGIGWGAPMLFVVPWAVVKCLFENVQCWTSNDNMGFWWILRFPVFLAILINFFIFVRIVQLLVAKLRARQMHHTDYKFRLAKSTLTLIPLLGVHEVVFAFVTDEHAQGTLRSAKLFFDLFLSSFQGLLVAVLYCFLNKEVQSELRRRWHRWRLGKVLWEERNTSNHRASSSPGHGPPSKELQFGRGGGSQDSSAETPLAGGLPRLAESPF
Sequence of human GCGR (P47871 26-477): as above

On to `O=C(O)CCNC(=O)c1ccc(-c2cc(Cl)ccc2CNc2ccc(-c3ccc(Cl)cc3)cc2)cn1` [Compound 6, 3-(5-(5-chloro-2-(((4′-chloro-[1,1′-biphenyl]-4-yl)amino)methyl)phenyl)picolinamido)propanoic acid], for which the figures for the pKi (at human GCGR; in assay [1] (setting [2])) were 7.30 and 7.40, respectively.
For `Cc1cc(Cl)ccc1-c1ccc(NCc2ccc(Cl)cc2-c2ccc(C(=O)NCCC(=O)O)nc2)cc1` [Compound 148, 3-(5-(5-chloro-2-(((4′-chloro-2′-methyl-[1,1′-biphenyl]-4-yl)amino)methyl)phenyl)picolinamido)propanoic acid] the same measures were 7.47 and 7.73.
Consider `O=C(O)CCNC(=O)c1ccc(-c2cc(Cl)ccc2CNc2ccc(-c3ccc(F)cc3Cl)c(Cl)c2)cn1` [Compound 138, 3-(5-(5-chloro-2-(((2,2′-dichloro-4′-fluoro-[1,1′-biphenyl]-4-yl)amino)methyl)phenyl)picolinamido)propanoic acid], for which the pKi was 6.92 on human GCGR and 7.64 in assay [1].
`O=C(O)CCNC(=O)c1ccc(-c2cc(-c3ccccc3)ccc2CNc2ccc(-c3ccc(Cl)cc3Cl)cc2)cn1` [Compound 173, 3-(5-(4-(((2′,4′-dichloro-[1,1′-biphenyl]-4-yl)amino)methyl)-[1,1′-biphenyl]-3-yl)picolinamido)propanoic acid]: the pKi at human GCGR is 7.17; in assay [1] (setting [2]), 7.57.
On to `O=C(O)CCNC(=O)c1ccc(-c2cc(C3=CCCCC3)ccc2CNc2ccc(-c3ccc(Cl)cc3Cl)cc2)cn1` [Compound 176, 3-(5-(4-(((2′,4′-dichloro-[1,1′-biphenyl]-4-yl)amino)methyl)-2′,3′,4′,5′-tetrahydro-[1,1′-biphenyl]-3-yl)picolinamido)propanoic acid], for which the pKi at human GCGR was 6.80; in assay [1] (setting [2]), 7.40.
`Cc1cc(-c2ccc(NCc3ccc(Cl)cc3-c3ccc(C(=O)NCCC(=O)O)nc3)cc2)ccc1F` [Compound 146, 3-(5-(5-chloro-2-(((4′-fluoro-3′-methyl-[1,1′-biphenyl]-4-yl)amino)methyl)phenyl)picolinamido)propanoic acid]: the pKi at human GCGR is 6.57; in assay [1] (setting [2]) it was 7.55.
Turning to `O=C(O)CCNC(=O)c1ccc(-c2cc(Cl)ccc2CNc2ccc(-c3ccc(F)c(C(F)(F)F)c3)c(Cl)c2)cn1` [Compound 144, 3-(5-(5-chloro-2-(((2-chloro-4′-fluoro-3′-(trifluoromethyl)-[1,1′-biphenyl]-4-yl)amino)methyl)phenyl)picolinamido)propanoic acid], the pKi is 7.64 on human GCGR and 7.91 in assay [1] (setting [2]).
Take `Cc1cc(Cl)ccc1-c1ccc(NC(=O)c2ccc(Cl)cc2-c2ccc(C(=O)NCCC(=O)O)nc2)cc1` [Compound 153, 3-(5-(5-chloro-2-((4′-chloro-2′-methyl-[1,1′-biphenyl]-4-yl)carbamoyl)phenyl)picolinamido)propanoic acid]: the figures for the pKi (on human GCGR; in assay [1] (setting [2])) were 7.55 and 7.48, respectively.
As to `O=C(O)CCNC(=O)c1ccc(-c2cc(Cl)ccc2CNc2ccc(-c3ccc(F)cc3F)c(Cl)c2)cn1` [Compound 63, 3-(5-(5-chloro-2-(((2-chloro-2′,4′-difluoro-[1,1′-biphenyl]-4-yl)amino)methyl)phenyl)picolinamido)propanoic acid], the pKi is 6.73 at human GCGR and 7.65 in assay [1] (setting [2]).
As for `O=C(O)CCNC(=O)c1ccc(-c2cc(Cl)ccc2CNc2ccc(-c3ccc(F)cc3)c(F)c2)cn1` [Compound 88, 3-(5-(5-chloro-2-(((2,4′-difluoro-[1,1′-biphenyl]-4-yl)amino)methyl)phenyl)picolinamido)propanoic acid], the pKi at human GCGR is 6.43; in assay [1] (setting [2]) it was 7.35.
As for `Cc1cc(NCc2cc(Cl)c(C(F)(F)F)cc2-c2ccc(C(=O)NCCC(=O)O)nc2)ccc1-c1ccc(Cl)cc1` [Compound 79, 3-(5-(4-chloro-2-(((4′-chloro-2-methyl-[1,1′-biphenyl]-4-yl)amino)methyl)-5-(trifluoromethyl)phenyl)picolinamido)propanoic acid], the pKi on human GCGR was 7.50; in assay [1] (setting [2]) it was 7.62.
On to `O=C(O)CCNC(=O)c1ccc(-c2cc(C(F)(F)F)cc(Cl)c2CNc2ccc(-c3ccc(Cl)cc3)cc2)cn1` [Compound 67, 3-(5-(3-chloro-2-(((4′-chloro-[1,1′-biphenyl]-4-yl)amino)methyl)-5-(trifluoromethyl)phenyl)picolinamido)propanoic acid], for which the pKi is 7.91 at human GCGR and 7.73 in assay [1] (setting [2]).
Take `O=C(O)CCNC(=O)c1ccc(-c2cc(C(F)(F)F)ccc2CNc2ccc(-c3cccc(F)c3)cc2)cn1` [Compound 62, 3-(5-(2-(((3′-fluoro-[1,1′-biphenyl]-4-yl)amino)methyl)-5-(trifluoromethyl)phenyl)picolinamido)propanoic acid]: the pKi at human GCGR was 6.76; in assay [1] (setting [2]), 7.43.
In the case of `O=C(O)CCNC(=O)c1ccc(-c2cc(Cl)ccc2CNc2ccc(-c3c(F)cccc3Cl)cc2)cn1` [Compound 141, 3-(5-(5-chloro-2-(((2′-chloro-6′-fluoro-[1,1′-biphenyl]-4-yl)amino)methyl)phenyl)picolinamido)propanoic acid], the negative-log Ki (pKi) at human GCGR is 6.86; in assay [1] (setting [2]), 7.51.
In the case of `O=C(O)CCNC(=O)c1ccc(-c2cc(F)ccc2CNc2ccc(-c3ccc(Cl)cc3Cl)c(F)c2)cn1` [Compound 57, 3-(5-(2-(((2′,4′-dichloro-2-fluoro-[1,1′-biphenyl]-4-yl)amino)methyl)-5-fluorophenyl)picolinamido)propanoic acid], the pKi is 6.69 at human GCGR and 7.13 in assay [1] (setting [2]).
For `Cc1cccc(-c2ccc(C(=O)NCCC(=O)O)nc2)c1CNc1ccc(-c2ccc(Cl)cc2)cc1` [Compound 65, 3-(5-(2-(((4′-chloro-[1,1′-biphenyl]-4-yl)amino)methyl)-3-methylphenyl)picolinamido)propanoic acid], the negative-log Ki (pKi) was 6.41 on human GCGR and 6.86 in assay [1] (setting [2]).
On to `N#Cc1cccc(CNc2ccc(-c3ccc(Cl)cc3)cc2)c1-c1ccc(C(=O)NCCC(=O)O)nc1` [Compound 66, 3-(5-(2-(((4′-chloro-[1,1′-biphenyl]-4-yl)amino)methyl)-6-cyanophenyl)picolinamido)propanoic acid], for which the pKi was 5.73 on human GCGR and 7.16 in assay [1] (setting [2]).
`O=C(O)CCNC(=O)c1ccc(-c2cc(C(F)(F)F)c(Cl)cc2CNc2ccc(-c3ccc(Cl)cc3Cl)cc2)cn1` [Compound 82, 3-(5-(4-chloro-2-(((2′,4′-dichloro-[1,1′-biphenyl]-4-yl)amino)methyl)-5-(trifluoromethyl)phenyl)picolinamido)propanoic acid]: the pKi on human GCGR was 7.46; in assay [1] (setting [2]), 7.47.
For the compound `O=C(O)CCNC(=O)c1ccc(-c2cc(C3CCCCC3)ccc2CNc2ccc(-c3ccc(F)cc3)cc2)cn1` [Compound 175, 3-(5-(5-cyclohexyl-2-(((4′-fluoro-[1,1′-biphenyl]-4-yl)amino)methyl)phenyl)picolinamido)propanoic acid], the results for the pKi (at human GCGR; in assay [1] (setting [2])) were 7.34 and 7.62, respectively.
Taken in the same sequence, the figures for `C=C(C)c1ccc(CNc2ccc(-c3ccc(F)cc3)cc2)c(-c2ccc(C(=O)NCCC(=O)O)nc2)c1` [Compound 157, 3-(5-(2-(((4′-fluoro-[1,1′-biphenyl]-4-yl)amino)methyl)-5-(prop-1-en-2-yl)phenyl)picolinamido)propanoic acid] were 6.95 and 7.47.
Turning to `O=C(O)CCNC(=O)c1ccc(-c2cc(F)c(F)cc2C(=O)Nc2ccc(-c3ccc(C(F)(F)F)cc3)cc2)cn1` [Compound 96, 3-(5-(4,5-difluoro-2-((4′-(trifluoromethyl)-[1,1′-biphenyl]-4-yl)carbamoyl)phenyl)picolinamido)propanoic acid], the figures for the pKi (on human GCGR; in assay [1] (setting [2])) were 6.76 and 7.47, respectively.
On to `COc1ccc(-c2ccc(C(=O)NCCC(=O)O)nc2)c(CNc2ccc(-c3ccc(Cl)cc3Cl)cc2)c1` [Compound 60, 3-(5-(2-(((2′,4′-dichloro-[1,1′-biphenyl]-4-yl)amino)methyl)-4-methoxyphenyl)picolinamido)propanoic acid], for which the pKi is 5.86 at human GCGR and 6.71 in assay [1] (setting [2]).
On to `O=C(O)CCNC(=O)c1ccc(-c2cc(Cl)ccc2C(=O)Nc2ccc(-c3ccc(F)cc3F)cc2)cn1` [Compound 36, 3-(5-(5-chloro-2-((2′,4′-difluoro-[1,1′-biphenyl]-4-yl)carbamoyl)phenyl)picolinamido)propanoic acid], for which the values for the pKi (at human GCGR; in assay [1] (setting [2])) were 7.02 and 7.17, respectively.
Regarding `O=C(O)CCNC(=O)c1ccc(-c2ccccc2CNc2ccc(-c3ccc(Cl)cc3)cc2)cn1` [Compound 2, 3-(5-(2-(((4′-chloro-[1,1′-biphenyl]-4-yl)amino)methyl)phenyl)picolinamido)propanoic acid], the pKi is 6.29 on human GCGR and 6.73 in assay [1] (setting [2]).
As for `O=C(O)CCNC(=O)c1ccc(-c2cc(F)c(F)cc2CNc2ccc(-c3ccc(Cl)cc3)c(Cl)c2)cn1` [Compound 103, 3-(5-(2-(((2,4′-dichloro-[1,1′-biphenyl]-4-yl)amino)methyl)-4,5-difluorophenyl)picolinamido)propanoic acid], the figures for the pKi (at human GCGR; in assay [1] (setting [2])) were 7.16 and 7.64, respectively.
For `O=C(O)CCNC(=O)c1ccc(-c2cc(Cl)ccc2CNc2ccc(-c3ccc(F)c(Cl)c3)c(Cl)c2)cn1` [Compound 171, 3-(5-(5-chloro-2-(((2,3′-dichloro-4′-fluoro-[1,1′-biphenyl]-4-yl)amino)methyl)phenyl)picolinamido)propanoic acid], the pKi on human GCGR is 6.93; in assay [1] (setting [2]), 7.44.
